Measured values from patent US20020086832A1, “Caspase inhibitors for inhibiting blood cell proliferation and for treating autoimmune diseases” (APOTECH RESEARCH AND DEVELOPMENT LTD., priority 1999, published 2002).
Entries after “also recorded” stand apart in the source; their conditions may differ.

Key:
Assay type in all cases: cell-based
[1] = test system: human peripheral blood lymphocytes; test: Proliferation of human PBL/T-cells stimulated with anti-CD3 antibodies, [3H] thymidine incorporation; conditions: for inhibition of the stimulation (cell proliferation) brought about by the anti-CD3: human PBL, inhibitor 25 to 100 μM, four-day cultivation; for inhibition of the stimulation (cell proliferation) brought about by the anti-CD3 / effect on cell proliferation (cpm, [3H] thymidine incorporation): FIG. 1; for effect on cell proliferation (cpm, [3H] thymidine incorporation): human T-cells, 10 μg/ml soluble anti-CD3 antibodies, inhibitor concentrations above 25 μM
Description: For this purpose the T-cells were stimulated with 10 μg/ml soluble anti-CD3 antibodies in the presence of various caspase inhibitors. […] Plotted, the proliferation of the stimulated T-cells (cpm, measured by [^3H] thymidine incorporation) is found as a function of increasing concentrations of caspase inhibitors.
This means that the activity of caspase-8 is significant for the IL-2 production of T-cells. In the experiments on which FIG. 5 is based, PBL were activated with 10 μg/ml soluble anti-CD3 antibody in the presence or absence of zVAD-fink (50 μM) and in the presence of anti-CD3 antibody zVAD-fmk and 500 U/ml recombinant human IL-2, respectively.
For this purpose, the latter were prepared through Ficoll-Hypaque centrifugation. The cells (5×10^4 cells per well) were then cultivated on 96-well plates in the presence of different caspase inhibitors or, for control purposes, in their absence. The concentration of the caspase inhibitors was varied in a range of 25 to 100 μM. Finally, the cells were stimulated through anti-CD3 antibodies (TR66) or through a combined stimulation with anti-CD3 antibodies and soluble recombinant FasL with or without anti-FLAG sequence antibodies 1 μg/ml.
Cell proliferation was measured during the last 18 hours of the four-day cultivation period. The measuring variable for cell proliferation was the incorporation of [^3H] thymidine into the proliferating cells.

[2] = test system: IL-2 production of T-lymphocytes; test: IL-2 concentration in supernatants of stimulated T-lymphocytes/PBL, CTLL bioassay; conditions: FIG. 4; for suppression of IL-2 production: anti-CD3 antibody stimulation (3 μg/ml immobilized), inhibitors 50 µM, supernatants after 24 hours; for IL-2 activity in supernatants / T-cell proliferation as reflected by IL-2 concentration in supernatants: immobilized anti-CD3 antibody (3 μg/ml) with or without crosslinked FasL (50 ng/ml)
Description: FIG. 4 illustrates the correlation of IL-2 expression and the use of caspase inhibitors using a bar diagram. […] The findings shown in FIG. 4 are based on experiments in which 106 ^6 PBL/ml were cultivated with immobilized anti-CD3 antibody (3 μg/ml) and FasL ([…]) in the presence or absence of the caspase inhibitors referred to above (50 µM). The supernatants were removed after 24 hours and examined with the help of a CTLL bioassay for their IL-2 concentration.
For this purpose, T-lymphocytes (10^6/ml) were stimulated with immobilized antiCD3 antibody (3 μg/ml) with or without crosslinked FasL (50 ng/ml). The supernatants of these preparations with a caspase inhibitor or without a caspase inhibitor as control were removed after the stimulation period and their respective IL-2 concentration was measured using a CTTL bioassay. The IL-2 concentration in the supernatants reflects the T-cell proliferation.

caspase-8 = target: T1, caspase-8 (Homo sapiens, UniProt Q14790); test: Western blot of procaspase-8 cleavage in lysates of stimulated human T-lymphocytes; conditions: anti-CD3 antibody and crosslinked sFasL, 6 hours, IETD-fmk 50 μM; FIG. 6
T1 construct: procaspase-8, 55 kDa fraction, or proteolytically cleaved, active caspase-8, 26 kDa fraction, respectively; endogenous in cells; host or cells: human T-lymphocytes stimulated with anti-CD3 antibody and crosslinked sFasL
T1 sequence (Q14790 whole entry): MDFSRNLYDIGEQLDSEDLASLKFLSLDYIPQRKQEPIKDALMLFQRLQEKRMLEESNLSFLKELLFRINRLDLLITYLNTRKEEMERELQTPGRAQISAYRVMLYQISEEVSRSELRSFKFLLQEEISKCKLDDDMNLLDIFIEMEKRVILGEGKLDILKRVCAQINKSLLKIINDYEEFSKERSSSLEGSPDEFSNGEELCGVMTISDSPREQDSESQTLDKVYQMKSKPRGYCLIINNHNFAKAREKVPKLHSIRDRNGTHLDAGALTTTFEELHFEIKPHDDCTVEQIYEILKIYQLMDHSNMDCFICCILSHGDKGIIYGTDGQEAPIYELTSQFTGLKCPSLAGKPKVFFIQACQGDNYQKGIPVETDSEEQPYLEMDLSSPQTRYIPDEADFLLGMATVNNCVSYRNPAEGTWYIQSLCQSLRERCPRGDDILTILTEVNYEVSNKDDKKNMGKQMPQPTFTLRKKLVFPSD
Description: FIG. 6 provides a Western blot. Human T-cells were cultivated either without stimulation (control), with soluble anti-CD3 antibody alone (3 μg/ml), or with anti-CD3 antibody and sFasL (50 ng/ml) which, as described above, is crosslinked via its FLAG sequence. The cell lysates were examined in accordance with the times shown in FIG. 6, with regard to the expression of procaspase-8 or of cleavage products of the procaspase-8.
In a further experimental approach, T-cells were stimulated with a combination of anti-CD3 antibodies and FasL for a period of 6 hours, namely in the presence of 50 µM of the caspase-8 inhibitor IETD-fmk.
After 0, 2, 4, 6 and 22 hours, cells were taken from the different preparations and lysated. The cell lysates were examined with the Western blot technique with respect to their caspase-8 activity (procaspase-8, 55 kDa fraction, or proteolytically cleaved, active caspase-8, 26 kDa fraction, respectively).

Substance	inhibition of the stimulation (cell proliferation) brought about by the anti-CD3 [1]	effect on cell proliferation (cpm, [3H] thymidine incorporation) [1]	suppression of IL-2 production [2]	IL-2 activity in supernatants [2]	T-cell proliferation as reflected by IL-2 concentration in supernatants [2]	active 26 kDa caspase-8 fraction/band in Western blot (caspase-8)	proteolytic cleavage of caspase-8 during stimulation (caspase-8)	cell proliferation with inhibitor plus exogenous recombinant human IL-2 ([1]; PBL, 10 μg/ml soluble anti-CD3 antibody, zVAD-fmk 50 μM and 500 U/ml IL-2, FIG. 5)	number of cells as against the control ([1]; PBL, 10 μg/ml soluble anti-CD3 antibody, zVAD-fmk 50 μM, FIG. 5)
IETD-fmk	complete inhibition	clear inhibiting effect	particularly effective	only weak	blocks	cannot be detected; also recorded: does not lead to any 26 kDa band being detected	effectively blocked	–	–
zVAD-fmk	complete inhibition; also recorded: partial inhibition	clear inhibiting effect	particularly effective	only weak	blocks	–	–	increases dramatically	clear reduction
